Assay results as given in patent US20260182575A1, “MOLECULES HAVING PESTICIDAL UTILITY AND INTERMEDIATES AND PROCESSES RELATED THERETO” (CORTEVA AGRISCIENCE LLC, priority 2022, published 2026).

Tests used:
Assay type in all cases: in vivo
[1] = system: Soybean Looper (Chrysodeixis includens, PSEPIN, SBL); test: Bioassay 4: soybean looper, artificial diet, 128-cell tray; settings: AI alone
Description: (§1) Stock solutions were prepared with F1 as well as for each of the active ingredients individually. Test solutions were prepared from the stock solutions. Test solutions were prepared containing F1, the individual active ingredients, and mixtures of F1 with each of the active ingredients. The test solution for F1 was prepared by adding 500 μL of the stock solution to a 25 mL glass vial, then adding 500 μL of a 9:1 mixture of acetone:water. The individual active ingredients were prepared by adding 500 μL of stock solution to a 25 mL glass vial, then adding 500 μL of a 9:1 mixture of acetone:water. The test solutions containing mixtures of F1, and the individual active ingredients were prepared by adding 500 μL of the active ingredient stock solution to a 25 mL glass vial, followed by 500 μL of the F1 stock solution, creating a test solution containing 0.04% (w/v) of F1 and 0.4% (w/v) of the active ingredient. Each test solution was serially diluted to create desired doses of test solutions (F1 at 0.04% (w/v), 0.004% (w/v), 0.0004% (w/v), 0.00004% (w/v), 0.000004% (w/v), and 0.0000004% (w/v) and active ingredients at 0.4% (w/v), 0.04% (w/v), 0.004% (w/v), 0.0004% (w/v), 0.00004% (w/v), and 0.000004% (w/v)).
(§2) The test solutions were tested against CEW, FAW, and SBL using the following procedure: an artificial lepidopteran diet (Multispecies Lepidopteran Diet, Southland Products) was distributed in 128-cell bioassay trays (Frontier Agricultural Sciences™). 50 μL of test solution was pipetted into a cell in the bioassay tray. (The test solution doses of 0.04% (w/v), 0.004% (w/v), 0.0004% (w/v), 0.00004% (w/v), 0.000004% (w/v), and 0.0000004% (w/v) translated to concentrations of 5, 0.5, 0.05, 0.005, 0.0005, and 0.00005 μg/cm^2 on the diet, respectively.) A reference treatment (solvent check) was treated with the diluent only. Each treatment was replicated 8 times for each species. A 2nd instar CEW, FAW, or SBL larva was placed on top of the diet in each cell and was contained with a clear perforated adhesive lid. Test trays were held at approximately 26° C. and ambient relative humidity (RH) prior to grading.
(§3) After 5 days, the number of live larvae were recorded from each cell and percent control was measured using Abbott's correction formula (W. S. Abbott, J. Econ. Entomol. 18 (1925), pp. 265-267) as follows:
(§4) where X=No. of live larvae on solvent check and Y=No. of live larvae on treated diet. In Table B4 the “Expected % Control” was calculated using the method described in Colby S. R., Weeds, 1967, 15, 20-22. Bioassay 5: Neotropical Brown Stink Bug (Euschistus heros, EUSCHE, “BSB”).

[2] = system: Corn Earworm (Helicoverpa zea, HELIZE, CEW); test: Bioassay 4: corn earworm, artificial diet, 128-cell tray; settings: AI alone
Description: as §1, §2, §3, §4

[3] = system: Fall Armyworm (Spodoptera frugiperda, LAPHFR, FAW); test: Bioassay 4: fall armyworm, artificial diet, 128-cell tray; settings: AI alone
Description: as §1, §2, §3, §4

[4] = system: Beet Armyworm (Spodoptera exigua, LAPHEG, BAW); test: Bioassay 7: beet armyworm, artificial diet, 96 well plate; settings: AI alone at 0.4 wt %
Description: (§5) The test solutions were tested against CEW, FAW, BAW, and SBL using the following procedure: an artificial lepidopteran diet (Multispecies Lepidopteran Diet, Southland Products) was distributed in 96 well plate. Twenty μL of test solution was pipetted onto a cell in the bioassay plate. […] Each treatment was replicated 5 times for each species. Approximately five first instar CEW, FAW, BAW, or SBL larva were placed on top of the diet in each cell and was contained with a clear perforated adhesive lid. Test trays were held at approximately 25° C. and ambient relative humidity prior to grading. After five days, the number of cells where all the larvae were dead were recorded as 100% and averaged across all replicates; then the percent control was measured using Abbott's correction formula (W. S. Abbott, J. Econ. Entomol. 18 (1925), pp. 265-267) as follows:
(§6) where X=No. of live larvae on solvent check and Y=No. of live larvae on treated diet. In Table 7 the “Expected % Control” was calculated using the method described in Colby S. R., Weeds, 1967, 15, 20-22. Bioassay 8: Western Corn Rootworm (Diabrotica virgifera virgifera, DIABVI, “WCR”)

[5] = system: Western Flower Thrips (Frankliniella occidentalis, FRANOC, WFT); test: Bioassay 3: western flower thrips, cotton leaf disc dip; settings: 3 days
Description: Stock solutions of F1 and various active ingredients were prepared initially at a concentration of 0.1 mg/mL using acetone as a diluent. Stock solutions were prepared with F1 as well as for each of the active ingredients individually. Test solutions were prepared from the stock solutions. Test solutions were prepared containing F1, the individual active ingredients, and mixtures of F1 with each of the active ingredients. The test solutions for F1 and the individual active ingredients were prepared by adding 500 μL of stock solution to a 25 mL glass vial, then adding 500 μL of acetone, followed by the addition of 9 mL water with 0.025% Tween® 20 to create a 0.0005% (w/v) solution. The test solutions containing mixtures of F1, and the individual active ingredients were prepared by adding 500 μL of the active ingredient stock solution to a 25 mL glass vial, followed by 500 μL of the F1 stock solution, then by the addition of 9 mL water with 0.025% Tween® 20 to create a test solution containing 0.0005% (w/v) F1 and 0.0005% (w/v) of the active ingredient. Each test solution was serially diluted to create desired doses of test solutions (0.0005% (w/v), 0.000125% (w/v), 0.00003125% (w/v), 0.0000078% (w/v), and 0.00000195% (w/v)).
The test solutions were tested against WFT using the following procedure: Leaf discs (2.7 cm in diameter) were cut from the true leaves of cotton plants. Leaf discs were dipped into the test solutions and shaken to ensure complete coverage of the leaf disc and then placed in Millipore® PetriSlides containing a filter paper disc. Treated leaf discs were air dried for approximately 1 hour. Each leaf disc was infested with 5 WFT (9-10-day old nymphs) by placement on each leaf disc, and the PetriSlides were capped to prevent escape. Each treatment was replicated three times and the test treatments were held at approximately 26° C. and ambient relative humidity (RH) prior to grading. Reference discs (solvent check) were treated with the diluent only. Evaluation was conducted by counting the number of live WFT under magnification 3 days after treatment. Percent control was measured using Abbott's correction formula (W. S. Abbott, J. Econ. Entomol. 18 (1925), pp. 265-267) as follows:
where X=No. of live nymphs on solvent check leaf discs and Y=No. of live nymphs on treated leaf discs. In Table B3 the “Expected % Control” was calculated using the method described in Colby S. R., Weeds, 1967, 15, 20-22. Bioassay 4: Corn Earworm (Helicoverpa zea, HELIZE, “CEW”), Fall Armyworm (Spodoptera frugiperda, LAPHFR, “FAW”), and Soybean Looper (Chrysodeixis includens, PSEPIN, “SBL”).

[6] = system: Corn Earworm (Helicoverpa zea, HELIZE, CEW); test: Bioassay 7: corn earworm, artificial diet, 96 well plate; settings: AI alone at 0.4 wt %
Description: as §5, §6

[7] = AI alone at 1:1 rate to F1 0.78 (10^-6 Wt %)
[8] = AI alone at 1:1 rate to F1 0.195 (10^-6 Wt %)
[9] = AI alone at 1:1 rate to F1 3.125 (10^-6 Wt %)

Molecule	Average % Control AI ([1]; 0.000004 wt %) [%]	Average % Control AI ([2]; 0.000004 wt %) [%]	Average % Control AI ([2]; 0.00004 wt %) [%]	Average % Control AI ([3]; 0.000004 wt %) [%]	Average % Control AI ([3]; 0.00004 wt %) [%]	other results
CC(C(=O)Nc1cn(-c2cccnc2)nc1Cl)S(C)(=O)=O (stereo not drawn) [AI-2, N-(3-chloro-1-(pyridin-3-yl)-1H-pyrazol-4-yl)-2-(methylsulfonyl)propanamide]	0.0	0.0	0.0	0.0	–	–
C/C(=N\C#N)N(C)Cc1ccc(Cl)nc1 [Acetamiprid]	–	0.0	0.0	–	0.0	Average % Control AI ([1]; 0.00004 wt %): 0.0%
CO/C=C(/C(=O)OC)c1ccccc1Oc1cc(Oc2ccccc2C#N)ncn1 [Azoxystrobin]	–	–	–	–	–	Average % Control AI [4]: 0.0%
FC(F)(F)c1ccc(COc2ncncc2C2OCCCO2)cc1 [Benzpyrimoxan]	0.0	0.0	0.0	0.0	–	–
CNC(=O)c1cc(C#N)cc(C)c1NC(=O)c1cc(Br)nn1-c1ncccc1Cl [Cyantraniliprole]	0.0	0.0	0.0	0.0	0.0	Average % Control AI ([1]; 0.00004 wt %): 0.0%; Average % Control AI [5, 7]: 0.0%
COc1ccc(Cl)c(S(=O)(=O)NC(=O)c2cn3cc(C(F)(F)F)cc(Cl)c3n2)c1 [Fluazain dolizine]	–	–	–	–	–	Average % Control AI [4]: 0.0%
N#Cc1c[nH]cc1-c1cccc2c1OC(F)(F)O2 [Fludioxonil]	–	–	–	–	–	Average % Control AI [4]: 0.0%
O=C(N=c1ccccn1Cc1ccc(Cl)nc1)C(F)(F)F [Flupyrimin]	0.0	0.0	0.0	0.0	0.0	Average % Control AI ([1]; 0.00004 wt %): 0.0%; Average % Control AI [5, 8]: 4.8%
CC1(C)[C@H](/C=C(\Cl)C(F)(F)F)[C@@H]1C(=O)O[C@@H](C#N)c1cccc(Oc2ccccc2)c1 [Lambda-cyhalothrin]	12.5	0.0	–	0.0	0.0	–
COc1cccc(C(=O)NN(C(=O)c2cc(C)cc(C)c2)C(C)(C)C)c1C [Methoxyfenozide]	25.0	0.0	0.0	12.5	0.0	Average % Control AI [5, 9]: 4.8%
CCCC1COC(Cn2cncn2)(c2ccc(Cl)cc2Cl)O1 (stereo not drawn) [Propiconazole]	–	–	–	–	–	Average % Control AI [6]: 0.0%
CC(COc1ccc(Oc2ccccc2)cc1)Oc1ccccn1 (stereo not drawn) [Pyriproxyfen]	12.5	0.0	0.0	12.5	–	–
CCOC(=O)OC1=C(c2cc(C)ccc2C)C(=O)N[C@]12CC[C@@H](OC)CC2 [Spirotetramat]	12.5	0.0	0.0	0.0	–	–
CC(c1ccc(C(F)(F)F)nc1)S(C)(=O)=NC#N (stereo not drawn) [Sulfoxaflor]	12.5	0.0	0.0	0.0	–	–
Dinotefuran	–	0.0	0.0	–	–	–
Spinosad	0.0	0.0	0.0	12.5	–	Average % Control AI [5, 9]: 57.1%
Tebuconazole	–	–	–	–	–	Average % Control AI [6]: 0.0%
Tetraniliprole	0.0	0.0	0.0	0.0	50.0	Average % Control AI ([1]; 0.00004 wt %): 12.5%; Average % Control AI ([2]; 0.0004 wt %): 12.5%; Average % Control AI [5, 8]: 0.0%; Average % Control AI [5, 7]: 5.7%; Average % Control AI [5, 9]: 0.0%; Average % Control AI ([5]; AI alone at 1:1 rate to F1 12.5 (10^-6 Wt %)): 12.6%; Average % Control AI ([5]; AI alone at 1:1 rate to F1 50 (10^-6 Wt %)): 0.0%
